The record followed here is US20240101667A1, “METHODS FOR IDENTIFYING LILRB-BLOCKING ANTIBODIES” (THE BOARD OF REGENTS OF THE UNIVERSITY OF TEXAS SYSTEM, priority 2020, published 2024).

Where a SMILES comes first, the peptide text is derived from it. The star is where a group is joined. Cbz = O=C(OCc1ccccc1)*; CH2F = FC*

What all share (type): cell-based, human
The test system of assay [1] is NF-κB signaling. The assay is described as follows: NF-κB reporter assay in THP-1-Lucia NF-κB cells. The settings on record: for NF-κB reporter activity activated by LILRB3: THP-1-Lucia cells activated with anti-LILRB3 antibody. On the procedure:
(§1) NF-κB reporter assay and LILRB3 chimeric receptor reporter assay. THP-1-Lucia™ NF-κB cells were purchased from InvivoGen. Human anti-LILRB3 antibody with the N297A mutation was coated onto the plate to activate LILRB3 signaling, and plates coated with hIgG (N297A) were used as the control. The activation of NF-κB signaling was evaluated by monitoring luciferase signal. Infected THP-1 reporter cells were cultured for an additional month before stimulation with anti-LILRB3. For the NF-κB reporter assay conducted in 293T cells, an NF-κB-driven firefly luciferase reporter plasmid co-transfected with a plasmid encoding CMV-driven Renilla luciferase along with plasmids expressing LILRB3, TRAF2, or cFLIP were transfected into cells. The luciferase activity was detected using the Dual-Luciferase® Reporter (DLR™) Assay System (Promega). LILRB3 chimeric receptor reporter cells were constructed as the inventors described (Deng et al., 2014; 2018; Kang et al., 2015), with LILRB3-ECD fused with the transmembrane and intracellular domains of paired immunoglobulin-like receptor β, which signals through the adaptor DAP-12 to activate the NFAT promoter.

Assay [2] deals with THP-1, Molm13, MV4 AML cells. The assay is described as follows: AML cell death / growth in plates coated with anti-LILRB3 (PI staining). The note with it: QNZ 10 μM. On the procedure:
Cell culture. THP-1, MV4-11, Molm13, U937, C1498 and 293T cells were purchased from ATCC. AML cell lines were cultured in RPMI-1640 with 10% FBS. Human anti-LILRB3 with the N297A mutation was coated onto the plate to activate LILRB3 signaling, and plates coated with human IgG (N297A) were used as controls. Cells infected with virus were cultured for at least an additional 3 weeks before analysis of LILRB3 signaling. Dead cells were identified using PI staining. Primary human T cells were isolated by autoMACS from donor PBMCs, stimulated with anti-CD3 and anti-CD28, and cultured in RPMI-1640 in the presence of IL-2. For the cytotoxic T lymphocyte assay, human AML cells were stained with CFSE and mixed at different ratios with activated T cells. After 10 hours, the percentage of PI-positive CFSE-stained AML cells was determined by FACS.

Assay [3] has as its system NF-κB signaling. The assay is described as follows: NF-κB reporter assay in 293T cells. On the procedure: as §1
A general note: A reporter such as luciferase makes a cellular process visible.

For the compound `CC[C@H](C)[C@H](NC(=O)OCc1ccccc1)C(=O)N[C@@H](CCC(=O)OC)C(=O)N[C@H](C(=O)N[C@@H](CC(=O)OC)C(=O)CF)[C@@H](C)O` [z-IETD-FMK] (Cbz-IE(OMe)TD(OMe)-CH2F), the “NF-κB reporter activity activated by LILRB3” value in the assay on NF-κB signaling [1] is given as “inhibited the NF-κB reporter activity”.

Regarding `Nc1ccc2ncnc(NCCc3ccc(Oc4ccccc4)cc3)c2c1` [QNZ], the “effect of LILRB3 on survival of THP-1 cells” value in assay [2] is “partially abolished the effect of LILRB3 on survival of THP-1 cells”.

Turning to `COC(=O)C[C@H](NC(=O)[C@H](C)NC(=O)[C@@H](NC(=O)OCc1ccccc1)C(C)C)C(=O)CF` [z-VAD-FMK] (Cbz-Val-Ala-Asp(OMe)-CH2F), the “ability of LILRB3 to stimulate NF-κB through TRAF2” value in the assay with NF-κB signaling [3] (293T cells co-transfected with TRAF2 or LILRB3) is “blocked the ability of LILRB3 to stimulate NF-κB through TRAF2”. Besides, the “LILRB3-induced NF-κB activity in 293T cells” value with NF-κB signaling [3] (tet-on cFLIP, 0.2 ug/ml of dox) was “blocked LILRB3-induced NF-κB activity”. Also, the “NF-κB reporter activity activated by LILRB3” value with NF-κB signaling [1] was “inhibited the NF-κB reporter activity”. In addition, the “LILRB3-induced NF-κB at low concentration of LPS” value with NF-κB signaling [1] (THP-1 cells) was “blocked LILRB3-induced NF-κB”.
